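These data come from cells grown in 96-well plates and exposed to compound for 48 hours at five concentrations. GI50 = concentration required for 50% inhibition of growth. TGI is the concentration that stops growth completely.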 Peptide text beside a SMILES is read from it.
system: NCI-H23 lung; assay: inhibition of tumour cell growth, NCI panel, 48 h

Point of comparison: `Oc1c(N2CCOCC2)cc(-c2cc(N3CCOCC3)c(O)c3ccccc23)c2ccccc12`, TGI 6.13 µM. Against it:
- C=C(C)[C@@H]1CC[C@]2(CO)CC[C@]3(C)[C@H](CC[C@@H]4[C@@]5(C)C=C(C#N)C(=O)C(C)(C)[C@@H]5CC[C@]43C)[C@@H]12 — within 1.5-fold, 6.05 µM
- S=c1ssc(N2CCOCC2)c1Cl — higher, > 100 µM
- COc1ccc(/C=C/c2c(C(=O)/C=C/c3ccccc3)c(C)nc3ccccc23)cc1 — within 1.5-fold, 4.19 µM

Point of comparison: `COc1ccc(/C=C/c2c(C(=O)/C=C/c3ccccc3)c(C)nc3ccccc23)cc1`, GI50 1.73 µM. Against it:
- C=C(C)[C@@H]1CC[C@]2(CO)CC[C@]3(C)[C@H](CC[C@@H]4[C@@]5(C)C=C(C#N)C(=O)C(C)(C)[C@@H]5CC[C@]43C)[C@@H]12 — within 1.5-fold, 2 µM
- S=c1ssc(N2CCOCC2)c1Cl — 17-fold higher, 29.1 µM

system: U251 CNS; assay: inhibition of tumour cell growth, NCI panel, 48 h

Point of comparison: `COc1ccc(/C=C/c2c(C(=O)/C=C/c3ccccc3)c(C)nc3ccccc23)cc1`, TGI 2.96 µM. Against it:
- Oc1c(N2CCOCC2)cc(-c2cc(N3CCOCC3)c(O)c3ccccc23)c2ccccc12 — within 1.5-fold, 3.34 µM
- C=C(C)[C@@H]1CC[C@]2(CO)CC[C@]3(C)[C@H](CC[C@@H]4[C@@]5(C)C=C(C#N)C(=O)C(C)(C)[C@@H]5CC[C@]43C)[C@@H]12 — within 1.5-fold, 2.8 µM
- S=c1ssc(N2CCOCC2)c1Cl — 9.6-fold higher, 28.3 µM

Point of comparison: `C=C(C)[C@@H]1CC[C@]2(CO)CC[C@]3(C)[C@H](CC[C@@H]4[C@@]5(C)C=C(C#N)C(=O)C(C)(C)[C@@H]5CC[C@]43C)[C@@H]12`, GI50 1.36 µM. Against it:
- S=c1ssc(N2CCOCC2)c1Cl — 11-fold higher, 15 µM
- COc1ccc(/C=C/c2c(C(=O)/C=C/c3ccccc3)c(C)nc3ccccc23)cc1 — within 1.5-fold, 1.61 µM

system: UACC-62 melanoma; assay: inhibition of tumour cell growth, NCI panel, 48 h

Point of comparison: `C=C(C)[C@@H]1CC[C@]2(CO)CC[C@]3(C)[C@H](CC[C@@H]4[C@@]5(C)C=C(C#N)C(=O)C(C)(C)[C@@H]5CC[C@]43C)[C@@H]12`, TGI 2.44 µM. Against it:
- Oc1c(N2CCOCC2)cc(-c2cc(N3CCOCC3)c(O)c3ccccc23)c2ccccc12 — 2.3-fold higher, 5.73 µM
- S=c1ssc(N2CCOCC2)c1Cl — higher, > 100 µM
- COc1ccc(/C=C/c2c(C(=O)/C=C/c3ccccc3)c(C)nc3ccccc23)cc1 — within 1.5-fold, 3.11 µM

Point of comparison: `COc1ccc(/C=C/c2c(C(=O)/C=C/c3ccccc3)c(C)nc3ccccc23)cc1`, GI50 1.61 µM. Against it:
- C=C(C)[C@@H]1CC[C@]2(CO)CC[C@]3(C)[C@H](CC[C@@H]4[C@@]5(C)C=C(C#N)C(=O)C(C)(C)[C@@H]5CC[C@]43C)[C@@H]12 — 2.2-fold lower, 0.72 µM
- S=c1ssc(N2CCOCC2)c1Cl — 16-fold higher, 26.5 µM

Work on `CCOC(=O)CNC(=O)C(Cc1ccccc1)NC(=O)C(N)CC(=O)O` (stereo not drawn) (H-Asp-Phe-Gly-OEt; configuration not given here) yielded a GI50 of 30.3 µg/mL.

system: HCT-15 colon; assay: inhibition of tumour cell growth, NCI panel, 48 h

Point of comparison: `COc1ccc(/C=C/c2c(C(=O)/C=C/c3ccccc3)c(C)nc3ccccc23)cc1`, TGI 3.77 µM. Against it:
- Oc1c(N2CCOCC2)cc(-c2cc(N3CCOCC3)c(O)c3ccccc23)c2ccccc12 — 1.7-fold higher, 6.38 µM
- S=c1ssc(N2CCOCC2)c1Cl — higher, > 100 µM

Point of comparison: `COc1ccc(/C=C/c2c(C(=O)/C=C/c3ccccc3)c(C)nc3ccccc23)cc1`, GI50 1.38 µM. Against it:
- S=c1ssc(N2CCOCC2)c1Cl — 17-fold higher, 23.6 µM

system: MDA-MB-435; assay: inhibition of tumour cell growth, NCI panel, 48 h

Point of comparison: `COc1ccc(/C=C/c2c(C(=O)/C=C/c3ccccc3)c(C)nc3ccccc23)cc1`, GI50 2.18 µM. Against it:
- S=c1ssc(N2CCOCC2)c1Cl — 11-fold higher, 25 µM

Point of comparison: `COc1ccc(/C=C/c2c(C(=O)/C=C/c3ccccc3)c(C)nc3ccccc23)cc1`, TGI 5.69 µM. Against it:
- S=c1ssc(N2CCOCC2)c1Cl — 13-fold higher, 73.7 µM

system: K-562 leukemia; assay: inhibition of tumour cell growth, NCI panel, 48 h

Point of comparison: `COc1ccc(/C=C/c2c(C(=O)/C=C/c3ccccc3)c(C)nc3ccccc23)cc1`, TGI 7.19 µM. Against it:
- Oc1c(N2CCOCC2)cc(-c2cc(N3CCOCC3)c(O)c3ccccc23)c2ccccc12 — within 1.5-fold, 6.64 µM
- C=C(C)[C@@H]1CC[C@]2(CO)CC[C@]3(C)[C@H](CC[C@@H]4[C@@]5(C)C=C(C#N)C(=O)C(C)(C)[C@@H]5CC[C@]43C)[C@@H]12 — higher, > 100 µM
- S=c1ssc(N2CCOCC2)c1Cl — higher, > 100 µM

Point of comparison: `C=C(C)[C@@H]1CC[C@]2(CO)CC[C@]3(C)[C@H](CC[C@@H]4[C@@]5(C)C=C(C#N)C(=O)C(C)(C)[C@@H]5CC[C@]43C)[C@@H]12`, GI50 2.2 µM. Against it:
- S=c1ssc(N2CCOCC2)c1Cl — 12-fold higher, 26.3 µM
- COc1ccc(/C=C/c2c(C(=O)/C=C/c3ccccc3)c(C)nc3ccccc23)cc1 — within 1.5-fold, 2.33 µM

system: SN12C renal; assay: inhibition of tumour cell growth, NCI panel, 48 h

Point of comparison: `C=C(C)[C@@H]1CC[C@]2(CO)CC[C@]3(C)[C@H](CC[C@@H]4[C@@]5(C)C=C(C#N)C(=O)C(C)(C)[C@@H]5CC[C@]43C)[C@@H]12`, GI50 1.17 µM. Against it:
- S=c1ssc(N2CCOCC2)c1Cl — 62-fold higher, 72.7 µM
- COc1ccc(/C=C/c2c(C(=O)/C=C/c3ccccc3)c(C)nc3ccccc23)cc1 — 1.8-fold higher, 2.05 µM

Point of comparison: `C=C(C)[C@@H]1CC[C@]2(CO)CC[C@]3(C)[C@H](CC[C@@H]4[C@@]5(C)C=C(C#N)C(=O)C(C)(C)[C@@H]5CC[C@]43C)[C@@H]12`, TGI 4.27 µM. Against it:
- S=c1ssc(N2CCOCC2)c1Cl — higher, > 100 µM
- COc1ccc(/C=C/c2c(C(=O)/C=C/c3ccccc3)c(C)nc3ccccc23)cc1 — within 1.5-fold, 4.63 µM
